Earlier results, collected in patent publication US20240366823A1, “INSTANT ACTION AEROSOL FOR AIR SANITIZATION AND DISINFECTION” (Reckitt Benckiser LLC, priority 2021, published 2024).

Experiments:
[1] = at 20° C.
[2] = ethanol, water

**Q.** With `OCCOCCOCCO` [TEG, Triethylene glycol] as the molecule, how does the vapor pressure [1] read?
**A.** 0.02 Pa

**Q.** And the solubility [2]?
**A.** soluble in ethanol and miscible with water
